LogP, chromatographic logP and inhibition data for 63 molecules are collected here from patent publication US20220274945A1, “SUBSTITUTED THIOPHENE CARBOXAMIDES AND DERIVATIVES THEREOF AS MICROBICIDES” (Bayer Aktiengesellschaft, priority 2019, published 2022).

Structures are written as SMILES.

System in the first series: not listed separately
As to the kind of experiment: Log P by HPLC on reversed phase columns (EEC directive 79/831 Annex V.A8).
Settings: not given
Format: physicochemical. The method, then: In the above tables, measurement of Log P values was performed according to EEC directive 79/831 Annex V.A8 by HPLC (High Performance Liquid Chromatography) on reversed phase columns with the following methods: [^a] […] If more than one Log P value is available within the same method, all the values are given and separated by “+”. Calibration was done with straight-chain alkan2-ones (with 3 to 16 carbon atoms) with known Log P values (measurement of Log P values using retention times with linear interpolation between successive alkanones). Lambda-max-values were determined using UV-spectra from 200 nm to 400 nm and the peak values of the chromatographic signals.
In the case of `CCCOC(=O)C1(NC(=O)c2sc(Br)c(Br)c2Cl)CC1` [I.40], the LogP is 3.91^[a]. The same measure, in the same setting: the result for `CCOC(=O)C1(NC(=O)c2sc(Cl)c(Cl)c2I)CC1` [I.04] reads 3.39^[a]; that for `O=C(NC1(C(=O)OC2CCC2)CC1)c1sc(Cl)c(Cl)c1Br` [I.30], 4.07^[a]. The same measure, in the same setting: the result for `CC(C)OC(=O)C1(NC(=O)c2sc(Br)c(Br)c2Br)CC1` [I.58] reads 3.98^[a]; that for `C[Si](C)(C)COC(=O)C1(NC(=O)c2sc(Br)c(Br)c2Br)CC1` [I.69], 4.97^[a]. On the same count and under the same terms, as for `CCCOC(=O)C1(NC(=O)c2sc(Br)c(Br)c2F)CC1` [I.37], the figure is 3.54^[a]; as for `O=C(NC1(C(=O)OC2CCC2)CC1)c1sc(Br)c(Br)c1Br` [I.38], 4.10^[a]; as for `O=C(NC1(C(=O)OC2CCOCC2)CC1)c1sc(Cl)c(Cl)c1Br` [I.70], 3.23^[a].

Consider `C=CCOC(=O)C1(NC(=O)c2sc(Br)c(Br)c2F)CC1` [I.24], for which the LogP was 3.33^[a].

With `COC(=O)C1(NC(=O)c2sc(Cl)c(Cl)c2F)CC1` [I.45], the LogP is 2.65^[a]. The same measure, in the same setting: as for `O=C(NC1(C(=O)Oc2ccccc2)CC1)c1sc(Cl)c(Cl)c1Br` [I.66], the figure is 4.19^[a]; as for `C=CCOC(=O)C1(NC(=O)c2sc(Br)c(Br)c2Br)CC1` [I.48], 3.77^[a]. Turning to `C[Si](C)(C)COC(=O)C1(NC(=O)c2sc(Cl)c(Cl)c2Br)CC1` [I.65], the LogP was 5.00^[a]. Still for that read-out and setting: as for `CCOC(=O)C1(NC(=O)c2sc(Br)cc2Br)CC1` [IVb.05], the figure is 2.92^[a]. The same measure, in the same setting: as for `C=CCOC(=O)C1(NC(=O)c2sc(Br)c(Br)c2I)CC1` [I.52], the figure is 3.71^[a]. Regarding `CC(C)(C)OC(=O)C1(NC(=O)c2sc(Br)c(Br)c2F)CC1` [I.19], the LogP was 3.91^[a]. Still for that read-out and setting: as for `CCOC(=O)C1(NC(=O)c2sc(Br)cc2Cl)CC1` [IVb.01], the figure is 2.84^[a]; as for `O=C(NC1(C(=O)OC2CSC2)CC1)c1sc(Cl)c(Cl)c1Br` [I.71], 3.87^[a]. On the same count and under the same terms, the result for `O=C(NC1(C(=O)OC2CCC2)CC1)c1sc(Br)c(Br)c1F` [I.36] reads 3.71^[a]; that for `O=C(NC1(C(=O)OC2CCCC2)CC1)c1sc(Br)c(Br)c1Br` [I.55], 4.47^[a]; that for `CC(C)(C)OC(=O)C1(NC(=O)c2sc(Br)c(Br)c2Br)CC1` [I.49], 4.40^[a]. Same read-out and setting: as for `N#CCOC(=O)C1(NC(=O)c2sc(Br)c(Br)c2Br)CC1` [I.72], the figure is 3.16^[a]; as for `CC(C)OC(=O)C1(NC(=O)c2cc(Br)c(Br)s2)CC1` [V.02], 3.25^[a]; as for `CCCOC(=O)C1(NC(=O)c2sc(Cl)c(Cl)c2Br)CC1` [I.31], 3.89^[a].

On to `CCOC(=O)C1(NC(=O)c2sc(Cl)c(Cl)c2F)CC1` [I.44], for which the LogP is 3.05^[a]. The same measure, in the same setting: the result for `CCCCOC(=O)C1(NC(=O)c2sc(Br)c(Br)c2Br)CC1` [I.57] reads 4.44^[a].

In the case of `O=C(NC1(C(=O)OC2CCCC2)CC1)c1sc(Br)c(Br)c1I` [I.59], the LogP is 4.37^[a]. With `COC(=O)C1(NC(=O)c2cc(Cl)c(Cl)s2)CC1` [V.04], the LogP was 2.49^[a]. Same read-out and setting: the result for `O=C(NC1(C(=O)OCC(F)(F)F)CC1)c1sc(Br)c(Br)c1Br` [I.74] reads 3.94^[a]; that for `CC(C)COC(=O)C1(NC(=O)c2sc(Br)c(Br)c2F)CC1` [I.20], 3.92^[a]; that for `CC(C)OC(=O)C1(NC(=O)c2sc(Br)c(Br)c2I)CC1` [I.62], 3.87^[a].

As to `O=C(NC1(C(=O)OCC2CC2)CC1)c1sc(Cl)c(Cl)c1Br` [I.46], the LogP was 4.05^[a].

Turning to `O=C(NC1(C(=O)OC2CSC2)CC1)c1sc(Br)c(Br)c1Br` [I.75], the LogP was 4.85^[a]. Still for that read-out and setting: as for `O=C(NC1(C(=O)OC2CCCC2)CC1)c1sc(Br)c(Br)c1F` [I.18], the figure is 3.99^[a]. On the same count and under the same terms, as for `O=C(NC1(C(=O)OCC(F)(F)F)CC1)c1sc(Cl)c(Cl)c1Br` [I.64], the figure is 3.91^[a]; as for `CCOC(=O)C1(NC(=O)c2sccc2F)CC1` [IVc.01], 1.65^[a]; as for `O=C(NC1(C(=O)OC2CCCC2)CC1)c1sc(Cl)c(Cl)c1Br` [I.26], 4.37^[a]. The same measure, in the same setting: the result for `O=C(NC1(C(=O)OCc2ccccc2)CC1)c1sc(Br)c(Br)c1F` [I.17] reads 3.94^[a]; that for `CCOC(=O)C1(NC(=O)c2sc(Br)cc2I)CC1` [IVb.02], 2.98^[a]. As for `CCOC(=O)C1(NC(=O)c2sc(Br)cc2F)CC1` [IVb.03], the LogP was 2.46^[a].

On to `CC(C)COC(=O)C1(NC(=O)c2sc(Cl)c(Cl)c2Br)CC1` [I.28], for which the LogP is 4.31^[a].

Take `O=C(NC1(C(=O)O)CC1)c1sc(Br)c(Br)c1F` [I.02]: the LogP is 2.19^[a]. The same measure, in the same setting: as for `O=C(NC1(C(=O)OC2CCC2)CC1)c1sc(Br)c(Br)c1I` [I.35], the figure is 3.99^[a]; as for `O=C(NC1(C(=O)OCC2CC2)CC1)c1sc(Br)c(Br)c1Br` [I.67], 4.02^[a]; as for `O=C(NC1(C(=O)OCc2ccccc2)CC1)c1sc(Cl)c(Cl)c1Br` [I.25], 4.28^[a]. Still for that read-out and setting: as for `CC(C)COC(=O)C1(NC(=O)c2sc(Br)c(Br)c2Br)CC1` [I.56], the figure is 4.40^[a]. The same measure, in the same setting: the result for `O=C(NC1(C(=O)OCc2ccccc2)CC1)c1sc(Br)c(Br)c1Br` [I.50] reads 4.37^[a].

For `CCCCOC(=O)C1(NC(=O)c2sc(Br)c(Br)c2F)CC1` [I.21], the LogP was 3.96^[a]. The same measure, in the same setting: the result for `O=C(NC1(C(=O)OC2CCOCC2)CC1)c1sc(Br)c(Br)c1Br` [I.68] reads 3.26^[a]; that for `CCOC(=O)C1(NC(=O)c2cc(Br)c(Br)s2)CC1` [V.01], 2.90^[a]. The same measure, in the same setting: as for `CCCCOC(=O)C1(NC(=O)c2sc(Cl)c(Cl)c2Br)CC1` [I.29], the figure is 4.34^[a].

For the molecule `C#CCOC(=O)C1(NC(=O)c2sc(Cl)c(Cl)c2Br)CC1` [I.33], the LogP was 3.35^[a]. Same read-out and setting: as for `CCCOC(=O)C1(NC(=O)c2sc(Br)c(Br)c2Br)CC1` [I.39], the figure is 3.92^[a]. Still for that read-out and setting: as for `CCCOC(=O)C1(NC(=O)c2sc(Br)c(Br)c2I)CC1` [I.41], the figure is 3.85^[a]; as for `CC(C)OC(=O)C1(NC(=O)c2sc(Cl)c(Cl)c2Br)CC1` [I.32], 3.86^[a].

With `C#CCOC(=O)C1(NC(=O)c2sc(Br)c(Br)c2Br)CC1` [I.47], the LogP is 3.44^[a].

`CC(C)OC(=O)C1(NC(=O)c2sc(Br)c(Br)c2F)CC1` [I.22]: the LogP is 3.52^[a].

Take `C#CCOC(=O)C1(NC(=O)c2sc(Br)c(Br)c2I)CC1` [I.51]: the LogP was 3.40^[a]. On the same count and under the same terms, as for `C=CCOC(=O)C1(NC(=O)c2sc(Cl)c(Cl)c2Br)CC1` [I.34], the figure is 3.66^[a]. Same read-out and setting: the result for `O=C(NC1(C(=O)OC2CCC2)CC1)c1sc(Br)c(Br)c1Cl` [I.42] reads 4.17^[a].

The same series, now with this note: reversed phase HPLC columns, method [a]: LC-UV, acidic range, 0.1% formic acid in water and acetonitrile as eluent.
On to `O=C(NC1(C(=O)O)CC1)c1sc(Cl)c(Cl)c1Br` [I.15, 1-{[(3-bromo-4,5-dichloro-2-thienyl)carbonyl]amino}cyclopropanecarboxylic Acid], for which the chromatographic logP worked out at 2.37.

In turn, `CCOC(=O)C1(NC(=O)c2scc(Br)c2F)CC1` [IVa.01, Ethyl 1-{[(4-bromo-3-fluoro-2-thienyl)carbonyl]amino}cyclopropanecarboxylate] registered a chromatographic logP of 2.37.

The same series, now with this note: reversed phase HPLC columns, value in the preparation example; method letter not given.
As for `O=C(NC1(C(=O)O)CC1)c1sc(Cl)c(Cl)c1Br` [I.15, 1-{[(3-bromo-4,5-dichloro-2-thienyl)carbonyl]amino}cyclopropanecarboxylic Acid], the chromatographic logP was 2.39. The same measure, in the same setting: as for `CCOC(=O)C1(NC(=O)c2scc(Br)c2F)CC1` [IVa.01, Ethyl 1-{[(4-bromo-3-fluoro-2-thienyl)carbonyl]amino}cyclopropanecarboxylate], the figure is 2.39.

The next series concerns Pseudomonas syringae pv. tomato. The series is described as follows: Pseudomonas syringae pv. tomato in vitro cell test. Format: cell-based. The conditions noted are these: 20 ppm of active ingredient, liquid culture, 24 h incubation, read-out: efficacy (inhibition of bacteria growth). The procedure:
(§1) • Solvent: DMSO • Culture medium: LB broth medium (Luria Broth Miller) Sigma • Inoculum: bacteria suspension Compounds to be tested were solubilized in DMSO and the solution used to prepare the required range of concentrations. The final concentration of DMSO used in the assay was ≤1%. Inoculum was prepared from a pre-culture of bacteria grown in liquid medium and diluted to the desired optical density (OD). Compounds were evaluated for their ability to inhibit bacteria growth in liquid culture assay. The compounds were added in the desired concentrations to culture medium containing the bacteria suspension. After 24 h of incubation, the efficacy of compounds was determined by spectrometric measurement of bacteria growth. Inhibition was determined by comparing the absorbance values in wells containing the compounds with the absorbance in control wells without compounds.
`O=C(NC1(C(=O)O)CC1)c1sc(Cl)c(Cl)c1Br` [I.15, 1-{[(3-bromo-4,5-dichloro-2-thienyl)carbonyl]amino}cyclopropanecarboxylic Acid]: the inhibition at 20 ppm is at most 30%. Still for that read-out and setting: as for `CCOC(=O)C1(NC(=O)c2sc(Cl)c(Cl)c2Br)CC1` [I.03, Ethyl 1-{[(3-bromo-4,5-dichloro-2-thienyl)carbonyl]amino}cyclopropanecarboxylate], the figure is at most 30%.

The next series concerns Botrytis cinerea. As to the kind of experiment: Botrytis cinerea in vitro cell test. The settings on record: 120 h, 20 ppm of active ingredient, liquid culture, 5 days incubation, read-out: efficacy (inhibition of fungal growth). Format: cell-based. The procedure: • Solvent: DMSO • Culture medium: 14.6 g anhydrous D-glucose (VWR), 7.1 g Mycological Peptone (Oxoid), 1.4 g granulated Yeast Extract (Merck), QSP Iliter • Inoculum: spore suspension
Fungicides were solubilized in DMSO and the solution used to prepare the required range of concentrations. The final concentration of DMSO used in the assay was ≤[…]1%.
A spore suspension of B. cinerea was prepared and diluted to the desired spore density.
Fungicides were evaluated for their ability to inhibit spore germination and mycelium growth in liquid culture assay. The compounds were added in the desired concentration to the culture medium with spores. After 5 days incubation, fungi-toxicity of compounds was determined by spectrometric measurement of mycelium growth. Inhibition of fungal growth was determined by comparing the absorbance values in wells containing the fungicides with the absorbance in control wells without fungicides.
Turning to `O=C(NC1(C(=O)O)CC1)c1sc(Cl)c(Cl)c1Br` [I.15, 1-{[(3-bromo-4,5-dichloro-2-thienyl)carbonyl]amino}cyclopropanecarboxylic Acid], the inhibition at 20 ppm is at most 30%. Consider `CCOC(=O)C1(NC(=O)c2sc(Cl)c(Cl)c2Br)CC1` [I.03, Ethyl 1-{[(3-bromo-4,5-dichloro-2-thienyl)carbonyl]amino}cyclopropanecarboxylate], for which the inhibition at 20 ppm was at most 30%.

The test system of the next series is Xanthomonas campestris pv. campestris. The series is described as follows: Xanthomonas campestris pv. campestris in vitro cell test. Format: cell-based. The conditions noted are these: 20 ppm of active ingredient, liquid culture, 24 h incubation, read-out: efficacy (inhibition of bacteria growth). The method, then: as §1, with “Compounds” for “Compounds to be tested”, “10%.” for “≤1%.”, “active ingredients.” for “compounds.”
Regarding `O=C(NC1(C(=O)O)CC1)c1sc(Cl)c(Cl)c1Br` [I.15, 1-{[(3-bromo-4,5-dichloro-2-thienyl)carbonyl]amino}cyclopropanecarboxylic Acid], the inhibition at 20 ppm was at most 30%. Still for that read-out and setting: as for `CCOC(=O)C1(NC(=O)c2sc(Cl)c(Cl)c2Br)CC1` [I.03, Ethyl 1-{[(3-bromo-4,5-dichloro-2-thienyl)carbonyl]amino}cyclopropanecarboxylate], the figure is at most 30%.

Broadly, the chromatographic logP is lipophilicity estimated from chromatographic retention. By inhibition is commonly meant the percentage by which the read-out fell short of the control.
